The NIST ThermoML archive (doi:10.1016/j.jct.2005.01.002)

Columns and labels:
[1] = 101.33 kPa, Liquid
[2] = xn = mol fraction of the nth substance listed; conditions: 101 kPa, Liquid

CCOCC [diethyl ether]
Conditions | mass density [kg/m3]
[1], 298.15 K | 707.79

CCOCC [diethyl ether] + CN(C)C=O
[2], 298.15 K
Conditions | mass density [kg/m3]
x2 = 0.0575 | 720.7
x2 = 0.1033 | 730.11
x2 = 0.1606 | 742.64
x2 = 0.2076 | 752.93
x2 = 0.2524 | 762.76
x2 = 0.2979 | 772.93
x2 = 0.3683 | 788.85
x2 = 0.4058 | 797.64
x2 = 0.4414 | 805.85
x2 = 0.4932 | 818.09
x2 = 0.5094 | 821.95
x2 = 0.53 | 826.82
x2 = 0.5595 | 833.95
x2 = 0.6229 | 849.26
x2 = 0.643 | 854.21
x2 = 0.717 | 872.52
x2 = 0.7584 | 882.84
x2 = 0.8124 | 896.81
x2 = 0.8523 | 906.61
x2 = 0.9295 | 926.56
x2 = 0.9655 | 936.09

CC(C)OC(C)C [diisopropyl ether]
[1]
Conditions | mass density [kg/m3]
298.15 K | 718.51
313.15 K | 702.59
328.15 K | 686.2

CC(C)OC(C)C [diisopropyl ether] + CN(C)C=O
mass density [kg/m3], [2]
Conditions | 298.15 K | 313.15 K | 328.15 K
x2 = 0.0551 | 726.89 | 711.08 | 694.81
x2 = 0.0998 | 733.84 | 718.04 | 701.68
x2 = 0.1567 | 742.64 | 726.81 | 710.25
x2 = 0.2133 | 751.81 | 736.08 | 719.61
x2 = 0.2581 | 759.64 | 743.93 | 727.41
x2 = 0.3049 | 767.92 | 752.25 | 735.75
x2 = 0.3548 | 777.09 | 761.49 | 744.95
x2 = 0.4003 | 785.84 | 770.29 | 753.71
x2 = 0.4401 | 793.67 | 778.18 | 761.59
x2 = 0.4868 | 803.29 | 787.92 | 771.3
x2 = 0.5049 | 807.13 | 791.8 | 775.18
x2 = 0.5285 | 812.21 | 796.95 | 780.34
x2 = 0.5548 | 818.02 | 802.83 | 786.22
x2 = 0.6182 | 832.62 | 817.65 | 801.09
x2 = 0.653 | 840.97 | 826.05 | 809.51
x2 = 0.7137 | 856.34 | 841.67 | 825.18
x2 = 0.7611 | 869.01 | 854.62 | 838.24
x2 = 0.801 | 880.32 | 866.12 | 849.8
x2 = 0.8447 | 893.01 | 879.09 | 862.93
x2 = 0.9027 | 911.02 | 897.56 | 881.59
x2 = 0.9502 | 926.7 | 913.74 | 897.98

CN(C)C=O [dimethylformamide]
[1]
Conditions | mass density [kg/m3]
298.15 K | 943.85
313.15 K | 930.98
328.15 K | 915.07
343.15 K | 900.41
358.15 K | 885.68

CCCCCOCCCCC [dipentyl ether]
[1]
Conditions | mass density [kg/m3]
298.15 K | 778.96
313.15 K | 768.65
328.15 K | 756.32
343.15 K | 743.97
358.15 K | 731.37

CCCOCCC [dipropyl ether]
[1]
Conditions | mass density [kg/m3]
298.15 K | 741.94
313.15 K | 727.87
328.15 K | 713.73
343.15 K | 699.61
358.15 K | 684.92
